Measurements reported in PMC9296036, “A peptide interfering with the dimerization of oncogenic KITENIN protein and its stability suppresses colorectal tumour progression” (Clinical and Translational Medicine, 2022).
Values belong to the molecule of their own block, whether it stands above or below them.

How the values were obtained:
[1] = Detection of KDIP and truncated forms in tumour and liver tissue by LC-MS/MS (MRM) after intravenous injection; assay type: in vivo, mouse; details: tissues collected 20 min after fifth intravenous injection of KDIP 5 mg/kg, below the limit of detection
Experimental: At 20 min after fifth intravenous injection of KDIP, tumour and liver tissues were collected, immediately frozen using liquid nitrogen and ground with a pestle and mortar. One part of resultant powder by weight was homogenized with two parts of lysis buffer containing 8‐M urea, 25‐mM Tris–HCl (pH 8.5) by volume and was placed in Eppendorf tubes. This lysate was sonicated three times for 2 s with 2‐s intervals of rest at 20% amplitude on ice. Insoluble debris was removed by obtaining supernatant after centrifugation at 14 000 g, 4°C for 15 min.
Peptide extraction from serum or tissue lysate was performed by solid‐phase extraction using Oasis HLB Cartridge 1‐cm^3 (30 mg). HLB cartridges were conditioned using ACN (1 ml) and 50% ACN, .5% FA (1 ml), followed by equilibration using .5% FA (2 ml). A volume of 10‐μl serum and 20 μl of tissue lysate were added by .5% FA to be 1 ml and were loaded on equilibrated cartridges. Cartridges were washed with .5% FA (3 ml), and then peptide was eluted by 50% ACN, .5% FA (500 μl). Eluates were vacuum‐dried using Speed‐Vac and were stored at −80°C until use. Dried samples were reconstituted in .5% FA 50 and 5 μl of sample was loaded on column for LC–MS/MS analysis.
Each sample was analysed using an Agilent 1100 Series high‐performance liquid chromatography pump (Agilent Technologies, USA) coupled to an LTQ linear ion trap mass spectrometer (Thermo Finnigan, USA). Separation of peptide was carried out on a homemade C18‐fused silica column (100‐μm internal diameter) with nano‐electrospray ionization interface. […] Peptide was quantified by multiple reaction monitoring (MRM) in positive ion mode, with a spray voltage of 2.3 kV. […] Furthermore, truncated forms ([…], […]) of KDIP that were detected during stability test were also analysed by following transitions: 468.5 → 404.8 (b16 ^+5), 468.5 → 444.85 (b18 ^+5), 468.5 → 505.7 (b16 ^+4), 468.5 → 551.35 (b18 + H2O^+4), 468.5 → 555.7 (b18 ^+4), 528.45 → 448.85 (b14 ^+4), 528.45 → 499.0 (b16 ^+4), 528.45 → 598.15 (b14 ^+3), 528.45 → 659.25 (b16 + H2O^+3) and 528.45 → 664.95 (b16 ^+3). […]

[2] = target: the molecule itself; assay: SDS-PAGE in the reducing/denaturing condition and Western blot; non-transfected HCT116 and Caco2 cells, regular SDS-PAGE gel, dimer-sized band
[3] = target: the molecule itself; assay: native gel or EMSA; lysates of Caco2 cells transfected with KITENIN-V5, with or without KDIP, on a native SDS-PAGE gel in the non-reducing/non-denaturing condition; immunoblot with anti-KITENIN antibody

B1: endogenous KITENIN (natural protein, UniProt Q8TAA9 1-524, looked up)
chain: MDTESTYSGYSYYSSHSKKSHRQGERTRERHKSPRNKDGRGSEKSVTIQPPTGEPLLGNDSTRTEEVQDDNWGETTTAITGTSEHSISQEDIARISKDMEDSVGLDCKRYLGLTVASFLGLLVFLTPIAFILLPPILWRDELEPCGTICEGLFISMAFKLLILLIGTWALFFRKRRADMPRVFVFRALLLVLIFLFVVSYWLFYGVRILDSRDRNYQGIVQYAVSLVDALLFIHYLAIVLLELRQLQPMFTLQVVRSTDGESRFYSLGHLSIQRAALVVLENYYKDFTIYNPNLLTASKFRAAKHMAGLKVYNVDGPSNNATGQSRAMIAAAARRRDSSHNELYYEEAEHERRVKKRKARLVVAVEEAFIHIQRLQAEEQQKAPGEVMDPREAAQAIFPSMARALQKYLRITRQQNYHSMESILQHLAFCITNGMTPKAFLERYLSAGPTLQYDKDRWLSTQWRLVSDEAVTNGLRDGIVFVLKCLDFSLVVNVKKIPFIILSEEFIDPKSHKFVLRLQSETSV
notes: KITENIN (Vangl1), endogenous; also called endogenous KITENIN dimer; source: endogenous, HEK293T, HCT116 or Caco2 lysate
stoichiometry N [2]: 2

B2: V5-tagged KITENIN (natural protein, UniProt Q8TAA9 1-524, looked up)
chain: B1 chain
notes: KITENIN (Vangl1), wild type; also called KITENIN-V5; WT-KITENIN
stoichiometry N [3]: 2

Next, values leading:

detection in regressed tumour tissues or liver by mass spectrometry [1]: not detected
Molecule: ARVRRRGPRRWRLVSDEAV [19‐mer, N-truncated form of KDIP found after incubation with mouse serum]

detection in regressed tumour tissues or liver by mass spectrometry [1]: not detected
Molecule: VRRRGPRRWRLVSDEAV [17‐mer, N-truncated form of KDIP found after incubation with mouse serum]
